According to US20080063714A1, “Compositions for Encapsulation and Controlled Release” (priority 2003, published 2008):

B1: Comparative Example: Unencapsulated adenosine deaminase, approximately 110 μg/mL in 0.1% trifluoroacetic acid in water (pH 2.0) (protein, UniProt P56658 2-363, looked up)
Adenosine deaminase: AQTPAFNKPKVELHVHLDGAIKPETILYYGRKRGIALPADTPEELQNIIGMDKPLSLPEFLAKFDYYMPAIAGCREAVKRIAYEFVEMKAKDGVVYVEVRYSPHLLANSKVEPIPWNQAEGDLTPDEVVSLVNQGLQEGERDFGVKVRSILCCMRHQPSWSSEVVELCKKYREQTVVAIDLAGDETIEGSSLFPGHVKAYAEAVKSGVHRTVHAGEVGSANVVKEAVDTLKTERLGHGYHTLEDATLYNRLRQENMHFEVCPWSSYLTGAWKPDTEHPVVRFKNDQVNYSLNTDDPLIFKSTLDTDYQMTKNEMGFTEEEFKRLNINAAKSSFLPEDEKKELLDLLYKAYGMPSPASAEQCL

Tests used:
[1] = Penicillin G degradation in acidic solution pH 2.0; type: physicochemical; conditions: pH 2.0, 2 hours, 37° C.
Description: For example, particles of the present invention can protect penicillin G from degradation in acidic environments. When exposed to an acidic environment, such as a solution with pH less than about 5.0, penicillin G is rapidly degraded. […] Penicillin G may be encapsulated in particles of the present invention, such as those comprising triazine derivatives of formula I, and protected from degradation in acidic environment. For example, penicillin G encapsulated in crosslinked particles comprising 4-{[4-(4-carboxyanilino)-6-(3-methyl-1H-imidazol-3-ium-1-yl)-1,3,5-triazin-2-yl]amino}benzoate and a mixture of magnesium and aluminum cations may be exposed to an acidic solution with a pH of 2.0 for 2 hours at 37° C.

[2] = molecular target: T1, adenosine deaminase (Bos taurus, UniProt P56658); assay: Adenosine deaminase activity (inosine by HPLC) after exposure to acid or water; type: biochemical; conditions: after 2 hours in 0.1% trifluoroacetic acid pH 2.0 at room temperature
T1 construct: purchased Sigma lot no; 70H8145 (catalogue number not given)
T1 sequence (P56658 2-363 limits assumed): B1 Adenosine deaminase
Description: One portion of the beads was added to a vial containing 20 ml of a 0.1% trifluoroacetic acid in water (pH of 2.0) test solution. The beads were exposed to the acidic test solution at room temperature for two hours. The acidic test solution was then decanted and discarded. The beads were rinsed with 10 mL deionized water. The water was then decanted and discarded. Phosphate buffer (20 mL, pH of 7.0 with 0.15 M NaCl) was added to the vial with the remaining beads and the vial was agitated on a wrist action shaker for one hour to dissolve the beads. The resulting solution was filtered through a 0.22 μm poly(vinylidene fluoride) filter.
The inosine peak area was 733 units.
The other portion of the beads was added to a vial containing 20 mL of deionized water (pH approx. 7.5). The beads were exposed to the water solution for two hours. The water was then decanted and discarded. Phosphate buffer (20 mL, pH of 7.0 with 0.15 M NaCl) was added to the vial with the remaining beads and the vial was agitated on a wrist action shaker for one hour to dissolve the beads. […] Adenosine deaminase activity was determined as described above. […]
Adenosine deaminase was added to a 20 mL of 0.1% trifluoroacetic acid in water (pH of 2.0) solution to prepare an acidic test solution with a concentration of approximately 110 μg/mL adenosine deaminase. […] Adenosine deaminase activity was determined as described above. […]

Molecule	Degradation of penicillin G in acidic solution [1]	Adenosine deaminase activity, inosine peak area [2]
CC1(C)S[C@@H]2[C@H](NC(=O)Cc3ccccc3)C(=O)N2[C@H]1C(=O)O [Penicillin G]	almost completely degraded	
B1		5 units
